{"source": "patent US20240316084A1", "about": "“COMPOSITIONS FOR USE IN PROMOTING ACCELERATED BUTYRATE PRODUCTION IN YOUNG CHILDREN” (SOCIETE DES PRODUITS NESTLE S.A., priority 2020, published 2024)", "format_in_all_cases": "cell-based, human", "key": {"[1]": {"tested_on": "gut microbiota of a toddler", "assay": "long term SHIME experiment, comparison of different HMOs blends in toddler (Example 2)", "procedure": "The model of the human gastrointestinal tract used was the SHIM ED. The first two reactors are of the fill-and-draw principle to simulate different steps in food uptake and digestion, with peristaltic pumps adding a defined amount of SHIME feed (140 mL 3×/day) and pancreatic and bile liquid (60 mL 3×/day), respectively to the stomach and small intestine compartment and emptying the respective reactors after specified intervals. The last three compartments simulate the large intestine. The SHIME® experiment for this study consisted of three stages: • Stabilization period: After inoculation of the colon reactors with a fresh faecal sample, a two-week stabilization period allowed the microbial community to differentiate in the different reactors depending on the local environmental conditions. During this period a basic nutritional matrix was provided to the SHIME to support the optimum diversity of the gut microbiota originally present in the faecal inoculum. • Control period: During this two-week reference period, the standard SHIME nutrient matrix was further added to the model for a period of 14 days. Analysis of samples in this period allows to determine the baseline microbial community composition and activity in the different reactors, which will be used as a reference for evaluating the treatment effects. • Treatment period: During this three-week period, the SHIME reactor was operated under nominal conditions, but with a diet supplemented with the 2′FL product on top of the normal composition or with the mixtures HMO-3 or HMO-5. The diet supplemented with HMOs administered 3 times a day at a concentration of 1%. In this experiment, also branched SCFA (b-SCFA=sum of isobutyrate, isovalerate and isocaproate) were measured which result from protein degradation and reflect proteolytic activity of the gut microbiota. A significant alterations in those metabolites was shown in fecal extracts from patients with colon cancer compared to controls Ref: Le Gall 2018 (Oncotarget, 2018, Vol. 9, (No. 70), pp: 33278-33289)"}, "[2]": {"tested_on": "gut microbiota of a toddler", "assay": "long term SHIME experiment with toddler samples (Example 1)", "conditions": "for Actinobacteria population (Abundance), colon model / butyrate concentration in colon model: Toddler; for increase of butyrate production: young child, three weeks of treatment", "procedure": "(§1) The model of the human gastrointestinal tract used was the SHIME®. The first two reactors are of the fill-and-draw principle to simulate different steps in food uptake and digestion, with peristaltic pumps adding a defined amount of SHIME® feed (140 mL 3×/day) and pancreatic and bile liquid (60 mL 3×/day), respectively to the stomach and small intestine compartment and emptying the respective reactors after specified intervals. The last three compartments simulate the large intestine. The SHIME® experiment for this study consisted of three stages: • Stabilization period: After inoculation of the colon reactors with a fresh faecal sample, a two-week stabilization period allowed the microbial community to differentiate in the different reactors depending on the local environmental conditions. During this period a basic nutritional matrix was provided to the SHIME to support the optimum diversity of the gut microbiota originally present in the faecal inoculum. • Control period: During this two-week reference period, the standard SHIME® nutrient matrix was further added to the model for a period of 14 days. Analysis of samples in this period allows to determine the baseline microbial community composition and activity in the different reactors, which will be used as a reference for evaluating the treatment effects. • Treatment period: During this three-week period, the SHIME® reactor was operated under nominal conditions, but with a diet supplemented with the 2′FL product on top of the normal composition. The diet supplemented with 2′FL was administered 3 times a day at a concentration of 1% SCFA Production were Measured Three Times Per Week Throughout the Experiment"}, "gut microbes": {"tested_on": "gut microbes", "assay": "gas production: samples from the proximal colon vessel of the SHIME treated with lactose or 2′-FL in a penicillin tube", "conditions": "for gas production between 6-24 h (rank): 6-24 h timeframe, Lactose versus 2′FL; for gas production at 48 h (gaz pressure): 48 h incubation", "procedure": "Gas production is a measure of fermentative activity by gut microbes. […] Gas production is not monitored in the long-term SHIME® model, given its regular flushing with N2 (to ensure anaerobiosis). Therefore, gas production was evaluated by collecting samples from the proximal colon vessel of the SHIME and treating them with lactose or 2′-FL in a penicillin tube. It was then incubated for 24 h and 48 h. The gas formation was assessed in those tubes."}, "[3]": {"tested_on": "gut microbiota of an infant", "assay": "long term SHIME experiment with infant fecal samples (Example 1)", "conditions": "for Actinobacteria population (Abundance), colon model / butyrate concentration in colon model: Infant; for increase of butyrate production: infant gut microbiota, three weeks of treatment", "procedure": "as §1"}, "[4]": {"conditions": "distal colon, treatment week 3, diet with 1% HMOs 3 times a day"}, "[5]": {"conditions": "treatment week 1, diet with 1% 2′FL 3 times a day"}, "[6]": {"conditions": "treatment week 2, diet with 1% 2′FL 3 times a day"}, "[7]": {"conditions": "treatment week 3, diet with 1% 2′FL 3 times a day"}}}
{"molecule": "2′-fucosyllactose [2′-FL]", "values": [{"measurement": "butyrate production in the colon, onset of effect", "setting": "[1]", "result": "immediate increase"}, {"measurement": "BCFA production in toddler", "setting": "[1]; [4]", "result": 3.1, "unit": "mM"}, {"measurement": "butyrate production in toddler", "setting": "[1]; [4]", "result": 29.5, "unit": "mM"}, {"measurement": "Actinobacteria population (Abundance), colon model", "setting": "[2]; treatment week 1", "result": 49.9, "unit": "%"}, {"measurement": "butyrate concentration in colon model", "setting": "[2]; [5]", "result": 28.1, "unit": "mM/m1"}, {"measurement": "Actinobacteria population (Abundance), colon model", "setting": "[2]; treatment week 2", "result": 53, "unit": "%"}, {"measurement": "butyrate concentration in colon model", "setting": "[2]; [6]", "result": 30.2, "unit": "mM/m1"}, {"measurement": "Actinobacteria population (Abundance), colon model", "setting": "[2]; treatment week 3", "result": 52.2, "unit": "%"}, {"measurement": "butyrate concentration in colon model", "setting": "[2]; [7]", "result": 30.3, "unit": "mM/m1"}, {"measurement": "butyrate concentration in the colon, onset of effect", "setting": "[2]; toddler samples", "result": "immediate increase"}, {"measurement": "butyrate concentrations, course through the treatment period", "setting": "[2]; toddler samples", "result": "relatively stable"}, {"measurement": "effect on Actinobacteria phylum mainly composed of Bifidobacteria", "setting": "[2]; toddlers", "result": "immediate effect"}, {"measurement": "increase of butyrate production", "setting": "[2]; Distal Colon", "result": 156, "unit": "%"}, {"measurement": "increase of butyrate production", "setting": "[2]; Proximal Colon", "result": 192, "unit": "%"}, {"measurement": "gas production between 6-24 h (rank)", "setting": "gut microbes", "result": "lowest"}, {"measurement": "gas production at 48 h (gaz pressure)", "setting": "gut microbes; Infant", "result": 31.8, "unit": "kPA"}, {"measurement": "gas production at 48 h (gaz pressure)", "setting": "gut microbes; Toddler", "result": 49.9, "unit": "kPA"}, {"measurement": "gas production over 48 hours as compared to Lactose", "setting": "gut microbes; both toddler and infant, 48 hours", "result": "less gas production"}, {"measurement": "increase in gas production corresponding to accelerated butyrate production", "setting": "gut microbes; toddlers", "result": "no corresponding increase in gas production"}, {"measurement": "Actinobacteria population (Abundance), colon model", "setting": "[3]; treatment week 1", "result": 31.8, "unit": "%"}, {"measurement": "butyrate concentration in colon model", "setting": "[3]; [5]", "result": 13.75, "unit": "mM/m1"}, {"measurement": "Actinobacteria population (Abundance), colon model", "setting": "[3]; treatment week 2", "result": 46.3, "unit": "%"}, {"measurement": "butyrate concentration in colon model", "setting": "[3]; [6]", "result": 15.85, "unit": "mM/m1"}, {"measurement": "Actinobacteria population (Abundance), colon model", "setting": "[3]; treatment week 3", "result": 43.5, "unit": "%"}, {"measurement": "butyrate concentration in colon model", "setting": "[3]; [7]", "result": 20.3, "unit": "mM/m1"}, {"measurement": "increase in butyrate, onset of effect", "setting": "[3]; infant fecal samples, over the weeks of treatment", "result": "more gradual"}, {"measurement": "increase of butyrate production", "setting": "[3]; Distal Colon", "result": 54, "unit": "%"}, {"measurement": "increase of butyrate production", "setting": "[3]; Proximal Colon", "result": 81, "unit": "%"}]}
{"molecule": "OC[C@H]1O[C@@H](O[C@H]2[C@H](O)[C@@H](O)C(O)O[C@@H]2CO)[C@H](O)[C@@H](O)[C@H]1O", "note": "(stereo partly shown) [Lactose, reference compound]", "values": [{"measurement": "gas production between 6-24 h (rank)", "setting": "gut microbes", "result": "highest"}, {"measurement": "gas production at 48 h (gaz pressure)", "setting": "gut microbes; Infant", "result": 4.7, "unit": "kPA"}, {"measurement": "gas production at 48 h (gaz pressure)", "setting": "gut microbes; Toddler", "result": 12.8, "unit": "kPA"}]}
